# Assays:
# [1] = tested on: mRNAs of PPAR alpha, PPAR gamma, AOX, AMPK alpha 1 and 2, CPT1; assay: Expression of genes involved in energy metabolism in DIO mice; assay type: in vivo, C57BL/6 mice; settings: 50 mg/kg daily oral
# Experimental: β-lapachone was administered daily to diet-induced obesity (DIO) mice at a dose of 50 mg/kg via an oral route, and levels of transcripts of genes involved in energy metabolism in the liver and gonadal adipose tissues were measured using real-time quantitative PCR. Referring to enzymes shown in FIG. 11, PPAR alpha and gamma are enzymes responsible for transcriptional regulation of enzymes involved in energy expenditure (30,31), AMPK plays a central role in the maintenance of cell energy homeostasis by sensing the intracellular AMP/ATP ratio, and AOX catalyzes to activate oxidative phosphorylation via oxidation of acyl CoA which resides in a certain step of a lipid metabolism process (32,33). In addition, CPT1 is also an enzyme involved in energy metabolism, and is well-known as an enzyme that enables the passage of long chain acyl CoA into mitochondria, not taking a route toward synthesis of triacylglycerol (34,35). […] Increased expression levels of such genes show the possibility that β-lapachone can be as therapeutic for the treatment of energy metabolism-related diseases.
# [2] = tested on: C57BL/6JL Lep ob/Lep ob mice; assay: Blood lipid, glucose and enzyme levels in obese mice (ob/ob); assay type: in vivo; set-up: unit not given here; settings: 100 mg/kg for 26 days
# Source text: (§1) 10-week-old C57BL/6JL Lep ob/Lep ob male mice having obesity characteristics and predisposition were purchased from Daehan Biolink Co., Ltd. (Chungchongbuk-do, Korea). Animals were raised in a breeding room maintained at a temperature of 23 C, 55% humidity, illumination of 300 to 500 lux, a 12-h light/dark (L/D) cycle, and ventilation of 10 to 18 times/hr. Animals were fed ad libitum pellets of Purina Rodent Laboratory Chow 5001 (purchased from Purina Mills Inc., St. Louis, Mo., USA) as a solid feed for experimental animals and tap water as drinking water. Mice were allowed to acclimate to new environment of the breeding room for two weeks and were then administered some pyrano-o-naphthoquinone and furano-o-naphthoquinone derivatives synthesized according to the present invention at doses of 100 mg/kg for 26 days. Observation was made on changes in body weight, blood glucose and dietary intake, with respect to a time course of administration. After administration was complete, Computed Tomography (CT) was performed to confirm changes in adipose tissue distribution of animals, changes in fat distribution of tissues in various organs, changes in sizes of adipocytes, and changes in glucose, lipid and enzyme levels in blood and liver.
# DIO C57BL/6 mice = assay: Respiratory Quotient (RQ), indirect calorimeter; assay type: in vivo; settings: measured for 7 hours, vs vehicle-administered group and control group
# Experimental: FIG. 24 is a graph showing effects of β-lapachone on Respiratory Quotient (RQ) after administration of β-lapachone to DIO C57BL/6 mice.
# This Example was intended to examine effects of β-lapachone on fat metabolism via measurement of Respiratory Quotient (RQ). Oxygen consumption and carbon dioxide production were measured using an Oxyscan open-circuit indirect calorimeter (AccuScan Instruments, Columbus, Ohio). This apparatus consisted of enclosed acrylic chambers (21×21×21 cm). Fresh air was drawn into each chamber at a rate of 1500 ml/min and then O2 and CO2 were allowed to pass through detectors. The concentrations of the gases were recorded in ml/kg body weight/min. RQ was calculated as the volume of CO2 produced (VCO2) divided by the volume of O2 consumed (VO2). A β-lapachone-administered group, a vehicle-administered group and a control group were placed in each apparatus, and RQ was measured for 7 hours. For acclimation of animal to new environment, mice were placed in the apparatus 2 hours prior to measurement.
# [3] = tested on: mRNAs of PGC1α, NRF1, mtTFA, COX 4 and 7; assay: Gene expression of proteins involved in mitochondrial biogenesis in DIO mice; assay type: in vivo, C57BL/6 mice; settings: 50 mg/kg daily oral, liver and gonadal adipose tissues, vs control group
# Experimental: β-lapachone was administered daily to diet-induced obesity (DIO) mice at a dose of 50 mg/kg via an oral route, and levels of mRNAs of peroxisome proliferator-activated receptor coactivator alpha 1 (PGC1α) (23,24), nuclear respiratory factor 1 (NRF1) (25-27), mitochondrial transcription factor (mtTFA) (25-27), and cytochrome c oxidase (COX) 4 and 7 (28,29) in the liver and gonadal adipose tissues were confirmed by real-time quantitative PCR. Proteins shown in FIG. 10 are representative enzymes responsible for regulation of biogenesis of mitochondria which plays a critical role in biosynthesis of energy in cells, and are also known to be involved in regulation of various physiological events.
# [4] = tested on: C57BL/6JL Lep ob/Lep ob mice; assay: Weight loss effects in obese mice (ob/ob): body weight; assay type: in vivo; settings: 100 mg/kg for 26 days
# Source text: as §1
# UCP 1 & 2 genes = assay: Expression of transcripts of UCP1 and UCP2 genes in DIO mice; assay type: in vivo, C57BL/6 mice; settings: 50 mg/kg daily oral, liver and gonadal adipose tissues
# Experimental: β-lapachone was administered daily to diet-induced obesity (DIO) mice at a dose of 50 mg/kg via an oral route, and levels of transcripts of uncoupling protein 1 & 2 (UCP 1 & 2) genes in the liver and gonadal adipose tissues was measured using real-time quantitative PCR. UCP 1 & 2 are enzymes that perform energy expenditure via heat generation, and it is reported that these enzymes function to consume energy without involving production of reactive oxygen species (ROS) and are also closely correlated with the incidence of obesity (38,39).
# [5] = tested on: endothelial nitric oxide synthase (eNOS); assay: Phosphorylation of eNOS in HUVEC; assay type: cell-based, Human; settings: 10 μM
# Experimental: It is well-known that activation of AMPK activates NRF-1 and facilitates mitochondrial biogenesis. In addition, NO/cGMP activates PGC-1a and NRF-1 to facilitate mitochondrial biogenesis. In order to ascertain whether β-lapachone, which activates AMPK, is involved in production of nitric oxide (NO), a degree of phosphorylation, increasing the activity of endothelial nitric oxide synthase (eNOS), was determined. In order to examine phosphorylation of eNOS by the action of β-lapachone, Human Umbilical Vein Endothelial Cells (HUVEC) were seeded onto a 60-mm plate at a density of 1×10^5 cells, and cultured in EBM2+5% FBS medium for 24 hours. The culture medium was replaced with a serum-free EBM2 medium, and cells were treated with β-lapachone (10 μM) for a predetermined period of time. Phosphorylated eNOS was observed using Anti-pS1177 eNOS.
# [6] = liver and gonadal adipose tissues
structure (smiles),measurement,setting,value
"CC1(C)CCC2=C(O1)c1ccccc1C(=O)C2=O [Compound 1, β-Lapachone]",PPAR alpha mRNA level,[1]; [6],not changed
same,PPAR gamma mRNA level,[1]; [6],about two-fold increases
same,AMPK alpha 1 mRNA level,[1]; vs control group,increased levels in mRNAs
same,AMPK alpha 2 mRNA level,[1]; vs control group,increased levels in mRNAs
same,acyl CoA oxidase (AOX) mRNA level,[1]; vs control group,increased levels in mRNAs
same,carnitine palmitoyltransferase 1 mRNA level,[1]; vs control group,increased levels in mRNAs
same,Cholesterol,[2],121
same,GOT,[2],42
same,GPT,[2],39
same,Glucose,[2],120
same,Triglyceride,[2],143
same,Respiratory Quotient (RQ),DIO C57BL/6 mice,significant difference in a RQ value
same,COX 4 mRNA level,[3],increased levels of mRNAs
same,COX 7 mRNA level,[3],increased levels of mRNAs
same,NRF1 mRNA level,[3],increased levels of mRNAs
same,PGC1α mRNA level,[3],increased levels of mRNAs
same,mtTFA mRNA level,[3],increased levels of mRNAs
same,Final BW,[4],46.5 g
same,change in vivo at 100 mg/kg,"[4]; Mus musculus, 624 h, read-out: Increase in BW",-16.8%
same,UCP1 mRNA level,UCP 1 & 2 genes,significant increases in mRNA levels
same,UCP2 mRNA level,UCP 1 & 2 genes,significant increases in mRNA levels
same,phosphorylation of eNOS after the maximum,[5],"gradually diminished, thereby not observed 2 hours later"
same,time of maximum increase of phosphorylation of eNOS (Anti-pS1177 eNOS),[5],30 min

# — patent US9066922B2, “Pharmaceutical composition for the treatment or prevention of diseases involving obesity, diabetes, metabolic syndrome, neuro-degenerative diseases and mitochondria dysfunction diseases” (MD BIOALPHA CO., LTD., priority 2005, dated 2015)
